# Measurements published in article PMC11727579, “Thermal proteome profiling unveils protein targets of deoxycholic acid in living neuronal cells” (Advanced Biotechnology, 2023).
# Legend:
# [1] = biological target: T1, Nicastrin (Homo sapiens, UniProt Q92542); assay: thermal proteome profiling (iTRAQ LC-MS/MS), isothermal dose-response stabilization at […] °C, SH-SY5Y cells; type: biochemical
# T1 construct: gene NCSTN
# [2] = biological target: T2, Casein kinase 1 epsilon (Homo sapiens, UniProt P49674); assay: as above; type: biochemical
# T2 construct: gene CSNK1E
# T2 sequence (P49674 whole entry): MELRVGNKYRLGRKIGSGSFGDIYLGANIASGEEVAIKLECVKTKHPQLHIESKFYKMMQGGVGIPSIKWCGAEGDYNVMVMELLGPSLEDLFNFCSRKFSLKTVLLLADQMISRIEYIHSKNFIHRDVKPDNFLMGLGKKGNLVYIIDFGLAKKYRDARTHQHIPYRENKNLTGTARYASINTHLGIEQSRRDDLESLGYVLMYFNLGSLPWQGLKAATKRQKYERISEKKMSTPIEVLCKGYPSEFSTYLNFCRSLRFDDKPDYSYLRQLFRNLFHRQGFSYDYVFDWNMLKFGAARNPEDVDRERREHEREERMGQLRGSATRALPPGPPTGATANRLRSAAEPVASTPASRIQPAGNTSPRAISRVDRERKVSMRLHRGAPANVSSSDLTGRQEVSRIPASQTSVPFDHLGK
# T1 sequence (Q92542 34-709): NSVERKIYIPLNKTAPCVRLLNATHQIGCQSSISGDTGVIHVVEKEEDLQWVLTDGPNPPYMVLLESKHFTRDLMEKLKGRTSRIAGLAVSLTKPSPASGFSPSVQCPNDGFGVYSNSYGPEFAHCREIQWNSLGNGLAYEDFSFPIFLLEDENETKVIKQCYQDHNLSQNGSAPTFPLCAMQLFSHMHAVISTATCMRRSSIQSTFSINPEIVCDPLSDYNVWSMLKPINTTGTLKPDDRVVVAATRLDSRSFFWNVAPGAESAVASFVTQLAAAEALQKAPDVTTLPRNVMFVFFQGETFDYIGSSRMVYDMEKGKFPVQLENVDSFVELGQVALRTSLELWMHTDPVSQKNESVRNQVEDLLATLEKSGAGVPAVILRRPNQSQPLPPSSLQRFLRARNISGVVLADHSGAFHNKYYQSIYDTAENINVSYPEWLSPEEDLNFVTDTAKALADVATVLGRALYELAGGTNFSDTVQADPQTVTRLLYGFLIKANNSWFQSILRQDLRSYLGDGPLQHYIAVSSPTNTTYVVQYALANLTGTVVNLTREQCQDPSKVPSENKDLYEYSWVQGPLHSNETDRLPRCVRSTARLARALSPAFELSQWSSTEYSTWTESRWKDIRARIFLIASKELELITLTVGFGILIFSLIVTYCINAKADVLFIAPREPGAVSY
smiles,measurement,setting,value
C[C@H](CCC(=O)O)[C@H]1CC[C@H]2[C@@H]3CC[C@@H]4C[C@H](O)CC[C@]4(C)[C@H]3C[C@H](O)[C@]12C [deoxycholic acid],EC50,[1],6.03 µM
same,EC50,[2],7.22 µM
